Literature values as cited in US10711043B2, “Compositions and vaccines comprising vesicles and methods of using the same” (priority 2013, dated 2020).

SMILES: COc1cc2cc(c1Cl)N(C)C(=O)C[C@H](OC(=O)[C@H](C)N(C)C(C)=O)[C@]1(C)O[C@H]1[C@H](C)[C@@H]1C[C@@](O)(NC(=O)O1)[C@H](OC)/C=C/C=C(\C)C2 [Maytansine, maytansine]
- solubility: insoluble in water and most solvents
